Data taken from ChEMBL document CHEMBL4819007, “Does targeting Arg98 of FimH lead to high affinity antagonists?” (Eur J Med Chem, 2021).

Key:
[1] = Antagonist activity at recombinant 6His-tagged thrombin cleavage site of FimH Lectin domain R98A mutant expressed in Escherichia coli HM125 assessed as dissociation constant measured after 24 hrs by fluorescence polarization assay
[2] = target: Type 1 fimbrin D-mannose specific adhesin (Escherichia coli K-12, UniProt P08191); test: Antagonist activity at recombinant 6His-tagged thrombin cleavage site of FimH Lectin domain expressed in Escherichia coli HM125 assessed as dissociation constant incubated for 24 hrs in presence of FITC-labeled tracer by competitive fluorescence polarization assay
Sequence of Type 1 fimbrin D-mannose specific adhesin (P08191 whole entry, the tested form may be a part): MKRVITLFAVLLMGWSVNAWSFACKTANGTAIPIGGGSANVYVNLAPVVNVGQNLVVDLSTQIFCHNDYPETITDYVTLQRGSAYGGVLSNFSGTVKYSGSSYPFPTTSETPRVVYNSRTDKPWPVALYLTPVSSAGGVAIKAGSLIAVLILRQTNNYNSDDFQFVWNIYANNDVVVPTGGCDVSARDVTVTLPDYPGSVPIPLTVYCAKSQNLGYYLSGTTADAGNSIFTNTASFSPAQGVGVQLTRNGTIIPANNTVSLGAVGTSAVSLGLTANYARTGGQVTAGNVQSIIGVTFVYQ

SMILES | Kd [1] [nM] | Kd [2] [nM]
CCCCCCCO[C@H]1O[C@H](CO)[C@@H](O)[C@H](O)[C@@H]1O | 35.6 | 36.8
OC[C@H]1O[C@H](n2cc(-c3ccccc3)nn2)[C@@H](O)[C@@H](O)[C@@H]1O | 297 | 336
COC(=O)COc1ccc(-c2cn([C@H]3O[C@H](CO)[C@@H](O)[C@H](O)[C@@H]3O)nn2)cc1 | 7.22 | 66.2
COC(=O)COc1cccc(-c2cn([C@H]3O[C@H](CO)[C@@H](O)[C@H](O)[C@@H]3O)nn2)c1 | 22.3 | 175
CCOC(=O)CCCCCCOc1cccc(-c2cn([C@H]3O[C@H](CO)[C@@H](O)[C@H](O)[C@@H]3O)nn2)c1 | 13.4 | 69.1
O=C(O)COc1ccc(-c2cn([C@H]3O[C@H](CO)[C@@H](O)[C@H](O)[C@@H]3O)nn2)cc1 | 14.6 | 171
CCOC(=O)CCCCCOc1cccc(-c2cn([C@H]3O[C@H](CO)[C@@H](O)[C@H](O)[C@@H]3O)nn2)c1 | 11.5 | 48.8
CCOC(=O)CCCCCCCOc1ccc(-c2cn([C@H]3O[C@H](CO)[C@@H](O)[C@H](O)[C@@H]3O)nn2)cc1 | 8.8 | 42.8
CCOC(=O)CCCCOc1ccc(-c2cn([C@H]3O[C@H](CO)[C@@H](O)[C@H](O)[C@@H]3O)nn2)cc1 | 10.1 | 50.6
O=C(O)CCCCCCOc1ccc(-c2cn([C@H]3O[C@H](CO)[C@@H](O)[C@H](O)[C@@H]3O)nn2)cc1 | 7.6 | 37.8
O=C(O)COc1cccc(-c2cn([C@H]3O[C@H](CO)[C@@H](O)[C@H](O)[C@@H]3O)nn2)c1 | 29 | 356
O=C(O)CCCOc1cccc(-c2cn([C@H]3O[C@H](CO)[C@@H](O)[C@H](O)[C@@H]3O)nn2)c1 | 20.7 | 178
CCOC(=O)CCCCCCOc1ccc(-c2cn([C@H]3O[C@H](CO)[C@@H](O)[C@H](O)[C@@H]3O)nn2)cc1 | 1.3 | 7.6
O=C(O)CCCOc1ccc(-c2cn([C@H]3O[C@H](CO)[C@@H](O)[C@H](O)[C@@H]3O)nn2)cc1 | 9.45 | 63.3
O=C(O)CCCCCOc1cccc(-c2cn([C@H]3O[C@H](CO)[C@@H](O)[C@H](O)[C@@H]3O)nn2)c1 | 17.3 | 56
O=C(O)CCCCCOc1ccc(-c2cn([C@H]3O[C@H](CO)[C@@H](O)[C@H](O)[C@@H]3O)nn2)cc1 | 7.5 | 36.7
O=C(O)CCCCOc1ccc(-c2cn([C@H]3O[C@H](CO)[C@@H](O)[C@H](O)[C@@H]3O)nn2)cc1 | 11.2 | 48.5
CCOC(=O)CCCOc1ccc(-c2cn([C@H]3O[C@H](CO)[C@@H](O)[C@H](O)[C@@H]3O)nn2)cc1 | 8.07 | 60.7
CCOC(=O)CCCCCOc1ccc(-c2cn([C@H]3O[C@H](CO)[C@@H](O)[C@H](O)[C@@H]3O)nn2)cc1 | 6.6 | 32.6
O=C(O)CCCCCCCOc1ccc(-c2cn([C@H]3O[C@H](CO)[C@@H](O)[C@H](O)[C@@H]3O)nn2)cc1 | 10.1 | 44.7
CCOC(=O)CCCCCCCOc1cccc(-c2cn([C@H]3O[C@H](CO)[C@@H](O)[C@H](O)[C@@H]3O)nn2)c1 | 25 | 107
COC(=O)CCCOc1cccc(-c2cn([C@H]3O[C@H](CO)[C@@H](O)[C@H](O)[C@@H]3O)nn2)c1 | 16 | 143
CCOC(=O)CCCCOc1cccc(-c2cn([C@H]3O[C@H](CO)[C@@H](O)[C@H](O)[C@@H]3O)nn2)c1 | 16.2 | 65
O=C(O)CCCCCCCOc1cccc(-c2cn([C@H]3O[C@H](CO)[C@@H](O)[C@H](O)[C@@H]3O)nn2)c1 | – | > 1000
O=C(O)CCCCCCOc1cccc(-c2cn([C@H]3O[C@H](CO)[C@@H](O)[C@H](O)[C@@H]3O)nn2)c1 | 63.2 | 533
O=C(O)CCCCOc1cccc(-c2cn([C@H]3O[C@H](CO)[C@@H](O)[C@H](O)[C@@H]3O)nn2)c1 | 16.3 | 78.5
